Laboratory results from ChEMBL document CHEMBL5346908, “Recent advances of mitochondrial complex I inhibitors for cancer therapy: Current status and future perspectives” (Eur J Med Chem, 2023).
Converted amounts (≈) assume the structure as drawn. Values belong to the molecule of their own block, whether it stands above or below them.

Columns and labels:
[1] = Inhibition of NADH-ubiquinone oxidoreductase (unknown origin) binding to ETC complex 1; design: species or system Homo sapiens
MDA-MB-435 = assay: Antiproliferative activity against human MDA-MB-435 cells assessed as reduction in cell viability incubated for 72 hrs by cell-titer glo assay; assay type: functional, cell-based; details: MDA-MB-435, 72 h
MDA-MB-231 [2] = assay: Antiproliferative activity against human MDA-MB-231 cells assessed as reduction in cell viability incubated for 72 hrs by cell-titer glo assay; assay type: functional, cell-based; details: MDA-MB-231, 72 h
HCT-116 [3] = assay: Antiproliferative activity against human HCT-116 cells assessed as reduction in cell viability; assay type: functional, cell-based
[4] = Antiproliferative activity against mouse L929 cells assessed as inhibition of cell growth incubated for 5 days by MTT assay; assay type: toxicity, cell-based
MDA-MB-231 [5] = assay: Inhibition of mitochondrial respiration in human MDA-MB-231 cells assessed as oxygen consumption rate incubated for 1 hr by Seahorse XF24 extracellular flux analyzer; assay type: functional, cell-based; details: MDA-MB-231, 1 h
HCT-116 [6] = assay: Inhibition of mitochondrial respiration in human HCT-116 cells assessed as oxygen consumption rate incubated for 1 hr by Seahorse XF24 extracellular flux analyzer; assay type: functional, cell-based; details: HCT-116, 1 h
[7] = Antiproliferative activity against mouse TA3/Ha cells assessed as reduction in cell growth; assay type: functional, cell-based
NCI-H460 = assay: Antiproliferative activity against human NCI-H460 cells assessed as reduction in cell viability incubated for 48 hrs by cell titer glow assay; assay type: functional, cell-based; details: NCI-H460, 48 h
Melanoma cell line = assay: Antiproliferative activity against human melanoma cells assessed as reduction in cell viability incubated for 72 hrs by CellTiter-Fluor reagent based fluorescence analysis; assay type: functional
THP-1 = assay: Antiproliferative activity against human THP-1 cells assessed as cell growth inhibition incubated for 72 hrs by MTT assay; assay type: functional, cell-based; details: THP-1, 72 h
HL-60 = assay: Antiproliferative activity against human HL-60 cells assessed as cell growth inhibition incubated for 72 hrs by MTT assay; assay type: functional, cell-based; details: HL-60, 72 h
KG-1 = assay: Antiproliferative activity against human KG-1 cells assessed as cell growth inhibition incubated for 72 hrs by MTT assay; assay type: functional, cell-based; details: KG-1, 72 h
NSCLC [8] = assay: Antiproliferative activity against human NSCLC cells assessed as reduction in cell viability incubated for 72 hrs by MTT assay; assay type: functional, cell-based
NSCLC [9] = assay: Antitumor activity against human NSCLC cells xenografted in orthotopic lung tumor mouse model assessed as reduction in tumor growth incubated for 8 weeks; assay type: functional; details: 1344 h
[10] = Antiproliferative activity against human DFCI024 cells assessed as reduction in cell growth incubated for 72 hrs by Cell-titer glo assay; assay type: functional, cell-based; details: DFCI024, 72 h
NCI-H1581 = assay: Antiproliferative activity against human NCI-H1581 cells assessed as reduction in cell growth incubated for 72 hrs by Cell-titer glo assay; assay type: functional, cell-based; details: NCI-H1581, 72 h
NCI-H157 = assay: Antiproliferative activity against human NCI-H157 assessed as reduction in cell growth incubated for 72 hrs by Cell-titer glo assay; assay type: functional, cell-based; details: NCI-H157, 72 h
NCI-H1693 = assay: Antiproliferative activity against human NCI-H1693 assessed as reduction in cell growth incubated for 72 hrs by Cell-titer glo assay; assay type: functional, cell-based; details: NCI-H1693, 72 h
A-375 = assay: Antiproliferative activity against human A-375 cells assessed as inhibition of cell growth measured after 72 hrs by CCK8 assay; assay type: functional, cell-based; details: A-375, 72 h
4T1 [11] = assay: Antitumor activity against mouse 4T1 cells xenografted in BALB/c mouse model assessed as peak tumor level at 100 mg/kg, ip measured after 4 hrs; assay type: functional
[12] = Half life in tumor of BALB/c mouse model xenografted with 4T1 cells at 100 mg/kg, ip measured after 4 hrs; assay type: ADME, organism-based
4T1 [13] = assay: Antitumor activity against mouse 4T1 cells xenografted in BALB/c mouse model assessed as peak plasma level at 100 mg/kg, ip; assay type: functional
[14] = Half life in BALB/c mouse plasma at 100 mg/kg, ip; assay type: ADME, organism-based
[15] = Oral bioavailability in human; assay type: ADME, organism-based; details: in vivo
[16] = target: T1, Receptor tyrosine-protein kinase erbB-2 (Homo sapiens, UniProt P04626); assay: Inhibition of ERBB2 (unknown origin) in human NCI-H1975 cells assessed as increase in mitochondrial ROS level incubated for 48 hrs by Western blot analysis
T1 sequence (P04626 whole entry): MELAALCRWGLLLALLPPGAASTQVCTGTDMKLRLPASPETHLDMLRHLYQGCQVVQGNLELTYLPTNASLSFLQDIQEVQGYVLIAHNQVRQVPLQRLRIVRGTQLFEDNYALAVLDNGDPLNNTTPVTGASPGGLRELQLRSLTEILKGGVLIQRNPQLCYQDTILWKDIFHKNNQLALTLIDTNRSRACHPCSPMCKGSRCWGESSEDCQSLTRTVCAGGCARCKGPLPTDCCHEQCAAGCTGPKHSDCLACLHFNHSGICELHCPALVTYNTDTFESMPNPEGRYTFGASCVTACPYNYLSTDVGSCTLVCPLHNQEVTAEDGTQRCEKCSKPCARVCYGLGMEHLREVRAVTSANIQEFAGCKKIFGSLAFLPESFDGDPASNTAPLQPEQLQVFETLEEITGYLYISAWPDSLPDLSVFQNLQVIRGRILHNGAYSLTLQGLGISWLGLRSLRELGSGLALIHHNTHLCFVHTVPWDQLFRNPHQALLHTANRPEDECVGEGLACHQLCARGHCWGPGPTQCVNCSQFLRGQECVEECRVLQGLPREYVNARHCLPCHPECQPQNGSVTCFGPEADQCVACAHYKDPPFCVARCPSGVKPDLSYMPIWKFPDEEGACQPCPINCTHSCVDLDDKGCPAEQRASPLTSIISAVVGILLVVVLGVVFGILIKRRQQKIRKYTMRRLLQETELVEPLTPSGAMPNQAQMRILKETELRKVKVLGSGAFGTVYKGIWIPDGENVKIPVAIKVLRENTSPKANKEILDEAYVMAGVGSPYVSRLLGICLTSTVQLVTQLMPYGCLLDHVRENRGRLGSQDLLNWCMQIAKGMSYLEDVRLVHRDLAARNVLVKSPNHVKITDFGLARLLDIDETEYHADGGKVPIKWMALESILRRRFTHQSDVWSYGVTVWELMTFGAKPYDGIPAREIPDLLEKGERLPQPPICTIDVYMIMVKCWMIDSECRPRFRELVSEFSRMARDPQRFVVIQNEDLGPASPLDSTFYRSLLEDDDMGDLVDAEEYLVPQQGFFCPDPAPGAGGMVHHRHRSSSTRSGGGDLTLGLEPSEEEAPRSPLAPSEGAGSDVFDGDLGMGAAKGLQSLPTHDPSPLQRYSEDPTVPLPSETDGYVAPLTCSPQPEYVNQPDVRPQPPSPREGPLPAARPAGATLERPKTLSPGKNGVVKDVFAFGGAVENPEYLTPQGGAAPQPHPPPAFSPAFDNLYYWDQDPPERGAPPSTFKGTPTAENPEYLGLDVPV

[17] = target: T1, Receptor tyrosine-protein kinase erbB-2; assay: Inhibition of ERBB2 (unknown origin)
[18] = Cytotoxicity against Trichoplusia ni BTI-TN-5B1-4 cells assessed as reduction cell proliferation incubated for 24 hrs by MTT assay; assay type: toxicity, cell-based
HT-29 [19] = assay: Inhibition of colony formation of human HT-29 cells assessed as reduction in colonies incubated for 7 days by crystal violet staining based analysis; assay type: functional, cell-based; details: HT-29, 168 h
HT-29 [20] = assay: Inhibition of colony formation of human HT-29 cells incubated for 7 days in absence of glucose by crystal violet staining based analysis; assay type: functional, cell-based; details: HT-29, 168 h
HepG2 = assay: Cytotoxicity against human HepG2 cells assessed as reduction cell proliferation incubated for 24 hrs by MTT assay; assay type: functional, cell-based; details: HepG2, 24 h
HEK293 = assay: Cytotoxicity against human HEK293 cells assessed as reduction in cell proliferation incubated for 24 hrs by MTT assay; assay type: functional, cell-based; details: HEK293, 24 h
L1210 = assay: Antitumor activity against mouse L1210 cells xenografted in […] model assessed as prolongation of life span relative to control; assay type: functional
[21] = Inhibition of mitochondrial respiration in Sprague-Dawley rat liver; assay type: functional, tissue-based
MCF7 = assay: Antiproliferative activity against human MCF7 cells assessed as reduction in cell viability incubated for 72 hrs by MTT assay; assay type: functional, cell-based; details: MCF7, 72 h

IC50 (MDA-MB-435): 11900 nM
IC50 (MDA-MB-231 [2]): 6900 nM
SMILES: Cc1ccc(Sc2cccc3[nH]c4nc(N)nc(N)c4c23)cc1
Ki [1]: 840 nM

IC50 (HCT-116 [3]): 450 nM
SMILES: Cc1cc(OCc2nnc(SC3CCCC3)n2-c2cccnc2)ccc1-c1ccc(S(C)(=O)=O)cc1
IC50 at 5 days [4]: 1.3 nM

IC50 (MDA-MB-231 [5]): 2100 nM
IC50 (HCT-116 [6]): 900 nM
SMILES: O[C@@H](CNC[C@H](O)[C@H]1CCc2cc(F)ccc2O1)[C@@H]1CCc2cc(F)ccc2O1

SMILES: CC1(C)C=CC(=O)c2c(O)c3c(c(O)c21)CC=CC3
IC50 [7]: 13000 nM

EC50 (NCI-H460): 3 nM
IC50 (Melanoma cell line): 2 nM
SMILES: Cc1cc(-c2nc(-c3ccc(OC(F)(F)F)cc3)no2)nn1Cc1ccnc(N2CCN(C3CC3)CC2)c1

EC50 (THP-1): 3 nM
EC50 (HL-60): 3 nM
SMILES: Cc1nc(-c2nc(-c3ccc(OC(F)(F)F)cc3)no2)nn1Cc1cccc(N2CCC(S(C)(=O)=O)CC2)c1
EC50 (KG-1): 3 nM

SMILES: O=C(NCCCCCCCCCC[P+](c1ccccc1)(c1ccccc1)c1ccccc1)c1nn(Cc2ccc(Cl)cc2Cl)c2ccccc12
IC50 (NSCLC [8]): 740 nM
ED50 (NSCLC [9]): 7.5 µmol/kg

IC50 (NCI-H1581): 200 nM
IC50 (NCI-H157): 200 nM
IC50 (NCI-H1693): 200 nM
SMILES: CCCCCn1c(=O)[nH]c2cc(C(=O)N3CCN(c4ccc([N+](=O)[O-])cc4)CC3)ccc2c1=O
IC50 [10]: 200 nM

IC50 (A-375): 100000 nM
half-life [12]: 1.2 h
half-life [14]: 1.1 h
SMILES: CCCCc1ccc(N)c(C)c1
Activity (4T1 [11]): 11 µM
Activity (4T1 [13]): 25 µM

bioavailability [15]: 72.9%
SMILES: N=C(NC(=N)N1CCCC1)Nc1ccc(OC(F)(F)F)cc1 [LIXUMISTAT]

IC50 [16]: 80 nM
IC50 [17]: 51 nM
SMILES: FC(F)(F)c1ccc(/C=C/c2nc(COc3ccc(CCCCn4ccnn4)cc3)co2)cc1 [MUBRITINIB]

SMILES: C/C=C(\C)[C@H](O)[C@H](C)/C=C(C)/C=C/C/C(C)=C/Cc1nc(OC)c(OC)c(O)c1C [PIERICIDIN A]
IC50 at 24 h [18]: 61 nM
IC50 (HT-29 [19]): 6.4 nM
IC50 (HT-29 [20]): 7.7 nM
IC50 (HepG2): 234000 nM
IC50 (HEK293): 229000 nM

SMILES: CCCCCCCCCC[C@H](O)[C@H]1CC[C@H]([C@H]2CC[C@H]([C@H](O)CCCCCCCCCC[C@@H](O)CC3=C[C@H](C)OC3=O)O2)O1 [REL-SQUAMOCIN-G]
Activity (L1210): 38%
IC50 [21]: 9.5 nM

SMILES: C=C(C)[C@H]1Cc2c(ccc3c2O[C@@H]2COc4cc(OC)c(OC)cc4[C@@H]2C3=O)O1 [ROTENONE]
IC50 at 5 days [4]: 16.1 nM
IC50 [21]: 19.3 nM

SMILES: CCCCCC[C@H](O)CCC[C@H](O)[C@H]1CC[C@H]([C@H]2CC[C@H]([C@H](O)CCCCCCCCCCCCC3=C[C@H](C)OC3=O)O2)O1 [SQUAMOCIN]
IC50 (MCF7): 0.8 ng/mL (≈ 1.28 nM)
